US8633315B2, “Substituted hydroxyethyl amine compounds as beta-secretase modulators and methods of use” (Amgen Inc., priority 2007, dated 2014)

Tests used:
BACE1 = BACE1 (Homo sapiens, UniProt P56817); test: In vitro enzymatic BACE FRET (fluorescence resonance energy transfer) assay; assay type: biochemical
Description: In Vitro Enzymatic BACE FRET (Fluorescence Resonance Energy Transfer) Assay (Enzyme Assay Data in Table 1)
The assay buffer used in this screen is 0.05 M acetate, pH 4.2, 10% DMSO final, 100 uM genapol (which is a nonionic detergent, below its Critical Micelle Concentration). […] The assay is effectively started by the addition of FRET substrate (50 nM) and the combination is incubated for one hour. The FRET assay is terminated with by addition of Tris buffer, which raises the pH to neutrality, and the fluorescence is determined. The FRET substrate is a peptide with commercially available fluorophore and quencher, on opposite sides of the BACE cleavage site. Proteolytic cleavage of the FRET substrate releases quenching of fluorescence (excitation […] and emission […]).

[1] = tested on: Cells stably expressing Amyloid Precursor Protein (APP); test: In vitro BACE cell-based assay (HEK cell assay): Aβ40 in conditioned medium by sandwich ELISA; conditions: Homo sapiens, HEK293, 24 h, Aβ40 in conditioned medium after 24 h incubation
Description: In Vitro BACE Cell-Based Assay:
The cell-based assay measures inhibition or reduction of Aβ40 in conditioned medium of test compound treated cells expressing amyloid precursor protein.
Cells stably expressing Amyloid Precursor Protein (APP) were plated at a density of 40K cells/well in 96 well plates (Costar). The cells were cultivated for 24 hours at 37° C. and 5% CO2 in DMEM supplemented with 10% FBS. The test compounds were then added to cells in 10-point dose response concentrations with the starting concentration being either 100 μM or 10 μM. The compounds were diluted from stock solutions in DMSO and the final DMSO concentration of the test compounds on cells was 0.1%. After 24 h of incubation with the test compounds the supernatant conditioned media was collected and the Aβ 40 levels were determined using a sandwich ELISA. The IC50 of the compound was calculated from the percent of control or percent inhibition of Aβ 40 as a function of the concentration of the test compound.
The sandwich ELISA to detect Aβ 40 was performed in 96 well microtiter plates, which were pre-treated with goat anti-rabbit IgG (Pierce). The capture and detecting antibody pair that were used to detect Aβ 40 from cell supernatants were affinity purified pAb40 (Biosource) and biotinylated 6E10 (Signet Labs Inc.), respectively. The optimal concentration for the pAb40 antibody was 3 μg/ml in Superblock/TBS (Pierce) that was supplemented with 0.05% Tween 20 (Sigma). Optimal concentration for the detection antibody 6E10-biotinylated was 0.5 μg/ml in Superblock/TBS (Pierce) that had been supplemented with 2% normal goat serum and 2% normal mouse serum.
Cellular supernatants were incubated with the capture antibody for 3 h at 4° C., followed by 3 wash steps in TBS-tween (0.05%). The detecting antibody incubation was for 2 h at 4° C., again followed by the wash steps as described previously. The final readout of the ELISA is Time-Resolved Fluorescence (counts per minute) using Delfia reagents Streptavidin-Europium and Enhancement solutions (Perkin Elmer) and the Victor 2 multilabel counter (Perkin Elmer).
Of the compounds tested, in-the cell-based assay, data for each of Examples 33-156 is provided in Table 1 and Examples 208-246 are provided in Table 4.

Chain of BACE1 (P56817 46-501, species assumed): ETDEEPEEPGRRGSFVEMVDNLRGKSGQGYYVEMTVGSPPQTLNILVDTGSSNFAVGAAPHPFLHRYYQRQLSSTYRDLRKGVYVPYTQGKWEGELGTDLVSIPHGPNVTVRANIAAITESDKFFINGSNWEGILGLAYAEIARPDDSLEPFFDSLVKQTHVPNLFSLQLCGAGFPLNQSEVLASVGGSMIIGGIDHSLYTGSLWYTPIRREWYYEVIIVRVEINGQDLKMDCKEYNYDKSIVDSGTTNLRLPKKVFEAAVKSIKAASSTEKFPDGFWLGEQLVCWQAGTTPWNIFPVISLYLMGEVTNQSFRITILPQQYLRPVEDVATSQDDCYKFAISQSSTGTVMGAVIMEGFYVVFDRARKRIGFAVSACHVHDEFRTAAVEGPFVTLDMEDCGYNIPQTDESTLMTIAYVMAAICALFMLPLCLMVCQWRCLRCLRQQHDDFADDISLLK

`C=CC[C@H](NC(=O)C1CC(=O)N(C2CCC2)C1)[C@H](O)CN[C@H]1CC2(CCC2)Oc2ncc(CC(C)C)cc21` (stereo partly drawn) [Example 40, 1-cyclobutyl-N-((1S)-1-((1R)-1-hydroxy-2-(((4′S)-6′-(2-methylpropyl)-3′,4′-dihydrospiro[cyclobutane-1,2′-pyrano[2,3-b]pyridin]-4′-yl)amino)ethyl)-3-buten-1-yl)-5-oxo-3-pyrrolidinecarboxamide] showed an IC50 (BACE1) of 6 nM and an IC50 [1] of 6 nM.

`C=CC[C@H](NC(=O)COC)[C@H](O)CNC1CC2(CC(F)(F)C2)Oc2ncc(CC(C)(C)C)cc21` (stereo partly drawn) [Example 41, N-((1S)-1-((1R)-2-((6′-(2,2-dimethylpropyl)-3,3-difluoro-3′,4′-dihydrospiro[cyclobutane-1,2′-pyrano[2,3-b]pyridin]-4′-yl)amino)-1-hydroxyethyl)-3-buten-1-yl)-2-(methyloxy)acetamide] showed an IC50 (BACE1) of 42 nM and an IC50 [1] of 127 nM.

With `C=CC[C@H](NC(=O)[C@@H](C)OC)[C@H](O)CN[C@H]1CC2(CCC2)Oc2ncc(CC(C)C)cc21` [Example 42, (2R)-N-((1S)-1-((1R)-1-hydroxy-2-(((4′S)-6′-(2-methylpropyl)-3′,4′-dihydrospiro[cyclobutane-1,2′-pyrano[2,3-b]pyridin]-4′-yl)amino)ethyl)-3-buten-1-yl)-2-(methyloxy)propanamide] the IC50 (BACE1) was 99 nM and the IC50 [1] was 269 nM.

Work on `CCC[C@H](NC(C)=O)[C@H](O)CN[C@H]1CC2(CCC2)Oc2ncc(CC(C)(C)C)cc21` [Example 43, N-((1S)-1-((1R)-2-(((4′S)-6′-(2,2-dimethylpropyl)-3′,4′-dihydrospiro[cyclobutane-1,2′-pyrano[2,3-b]pyridin]-4′-yl)amino)-1-hydroxyethyl)butyl)acetamide] yielded an IC50 (BACE1) of 83 nM and an IC50 [1] of 167 nM.

Work on `C=CC[C@H](NC(C)=O)[C@H](O)CN[C@H]1CC2(CCC2)Oc2c1cc(CC(C)(C)C)nc2N(C)C` [Example 45, N-((1S)-1-((1R)-2-(((4′S)-8′-(dimethylamino)-6′-(2,2-dimethylpropyl)-3′,4′-dihydrospiro[cyclobutane-1,2′-pyrano[2,3-c]pyridin]-4′-yl)amino)-1-hydroxyethyl)-3-buten-1-yl)acetamide] yielded an IC50 (BACE1) of 905 nM and an IC50 [1] of 6340 nM.

With `C=CC[C@H](NC(C)=O)[C@H](O)CN[C@H]1CC2(CCC2)Oc2c1cc(CC(C)(C)C)nc2N1CCCC1` [Example 46, N-((1S)-1-((1R)-2-(((4′S)-6′-(2,2-dimethylpropyl)-8′-(1-pyrrolidinyl)-3′,4′-dihydrospiro[cyclobutane-1,2′-pyrano[2,3-c]pyridin]-4′-yl)amino)-1-hydroxyethyl)-3-buten-1-yl)acetamide] the IC50 (BACE1) was 373 nM and the IC50 [1] was 183 nM.

Compound `C=CC[C@H](NC(=O)COC)[C@H](O)CN[C@H]1CC2(CCC2)Oc2c1cc(CC(C)(C)C)nc2N(C)C` [Example 48, N-((1S)-1-((1R)-2-(((4′S)-8′-(dimethylamino)-6′-(2,2-dimethylpropyl)-3′,4′-dihydrospiro[cyclobutane-1,2′-pyrano[2,3-c]pyridin]-4′-yl)amino)-1-hydroxyethyl)-3-buten-1-yl)-2-(methyloxy)acetamide] has an IC50 (BACE1) of 365 nM and an IC50 [1] of 2820 nM.

With `C=CC[C@H](NC(=O)COC)[C@H](O)CN[C@H]1CC2(CCC2)Oc2c1cc(CC(C)(C)C)nc2N1CCCC1` [Example 49, N-((1S)-1-((1R)-2-(((4′S)-6′-(2,2-dimethylpropyl)-8′-(1-pyrrolidinyl)-3′,4′-dihydrospiro[cyclobutane-1,2′-pyrano[2,3-c]pyridin]-4′-yl)amino)-1-hydroxyethyl)-3-buten-1-yl)-2-(methyloxy)acetamide] the IC50 (BACE1) was 84 nM and the IC50 [1] was 90 nM.

Work on `C=CC[C@H](NC(C)=O)[C@H](O)CN[C@H]1C[C@@]2(CC[C@H]2O)Oc2ncc(CC(C)(C)C)cc21` [Example 50, N-((1S)-1-((1R)-2-(((1R,2R,4′S)-6′-(2,2-dimethylpropyl)-2-hydroxy-3′,4′-dihydrospiro[cyclobutane-1,2′-pyrano[2,3-b]pyridin]-4′-yl)amino)-1-hydroxyethyl)-3-buten-1-yl)acetamide] yielded an IC50 (BACE1) of 4160 nM and an IC50 [1] of at least 10000 nM.

Work on `C=CC[C@H](NC(C)=O)[C@H](O)CN[C@H]1C[C@]2(CC[C@@H]2O)Oc2ncc(CC(C)(C)C)cc21` [Example 51, N-((1S)-1-((1R)-2-(((1S,2S,4′S)-6′-(2,2-dimethylpropyl)-2-hydroxy-3′,4′-dihydrospiro[cyclobutane-1,2′-pyrano[2,3-b]pyridin]-4′-yl)amino)-1-hydroxyethyl)-3-buten-1-yl)acetamide] yielded an IC50 (BACE1) of 63 nM and an IC50 [1] of 212 nM.

`C=CC[C@H](NC(=O)COC)[C@H](O)CN[C@H]1CC2(CCC2)Oc2ncc(CC(C)(C)C#N)cc21` [Example 55, N-((1S)-1-((1R)-2-(((4′S)-6′-(2-cyano-2-methylpropyl)-3′,4′-dihydrospiro[cyclobutane-1,2′-pyrano[2,3-b]pyridin]-4′-yl)amino)-1-hydroxyethyl)-3-buten-1-yl)-2-(methyloxy)acetamide] was tested, and the IC50 (BACE1) was 3400 nM and the IC50 [1] was 7580 nM.

`C=CC[C@H](NC(=O)c1cncc(F)c1)[C@H](O)CN[C@H]1CC2(CCC2)Oc2ncc(CC(C)(C)C)cc21` [Example 56, N-((1S)-1-((1R)-2-(((4′S)-6′-(2,2-dimethylpropyl)-3′,4′-dihydrospiro[cyclobutane-1,2′-pyrano[2,3-b]pyridin]-4′-yl)amino)-1-hydroxyethyl)-3-buten-1-yl)-5-fluoro-3-pyridinecarboxamide] gave an IC50 (BACE1) of 125 nM and an IC50 [1] of 392 nM.

`C=CC[C@H](NC(=O)c1cccnn1)[C@H](O)CN[C@H]1CC2(CCC2)Oc2ncc(CC(C)(C)C)cc21` [Example 57, N-((1S)-1-((1R)-2-(((4′S)-6′-(2,2-dimethylpropyl)-3′,4′-dihydrospiro[cyclobutane-1,2′-pyrano[2,3-b]pyridin]-4′-yl)amino)-1-hydroxyethyl)-3-buten-1-yl)-3-pyridazinecarboxamide] was tested, and the IC50 (BACE1) was 131 nM and the IC50 [1] was 228 nM.

`C=CC[C@H](NC(=O)c1ccc(F)cc1)[C@H](O)CN[C@H]1CC2(CCC2)Oc2ncc(CC(C)(C)C)cc21` [Example 58, N-((1S)-1-((1R)-2-(((4′S)-6′-(2,2-dimethylpropyl)-3′,4′-dihydrospiro[cyclobutane-1,2′-pyrano[2,3-b]pyridin]-4′-yl)amino)-1-hydroxyethyl)-3-buten-1-yl)-4-fluorobenzamide] showed an IC50 (BACE1) of 172 nM and an IC50 [1] of 666 nM.

In the case of `C=CC[C@H](NC(=O)c1ccccc1)[C@H](O)CN[C@H]1CC2(CCC2)Oc2ncc(CC(C)(C)C)cc21` [Example 59, N-((1S)-1-((1R)-2-(((4′S)-6′-(2,2-dimethylpropyl)-3′,4′-dihydrospiro[cyclobutane-1,2′-pyrano[2,3-b]pyridin]-4′-yl)amino)-1-hydroxyethyl)-3-buten-1-yl)benzamide], the IC50 (BACE1) is reported as 125 nM and the IC50 [1] is reported as 349 nM.

Compound `C=CC[C@H](NC(=O)c1ccc(F)c(F)c1)[C@H](O)CN[C@H]1CC2(CCC2)Oc2ncc(CC(C)(C)C)cc21` [Example 60, N-((1S)-1-((1R)-2-(((4′S)-6′-(2,2-dimethylpropyl)-3′,4′-dihydrospiro[cyclobutane-1,2′-pyrano[2,3-b]pyridin]-4′-yl)amino)-1-hydroxyethyl)-3-buten-1-yl)-3,4-difluorobenzamide] has an IC50 (BACE1) of 87 nM and an IC50 [1] of 361 nM.

Work on `C=CC[C@H](NC(=O)c1cc(F)cc(F)c1)[C@H](O)CN[C@H]1CC2(CCC2)Oc2ncc(CC(C)(C)C)cc21` [Example 61, N-((1S)-1-((1R)-2-(((4′S)-6′-(2,2-dimethylpropyl)-3′,4′-dihydrospiro[cyclobutane-1,2′-pyrano[2,3-b]pyridin]-4′-yl)amino)-1-hydroxyethyl)-3-buten-1-yl)-3,5-difluorobenzamide] yielded an IC50 (BACE1) of 5 nM and an IC50 [1] of 29.1 nM.

`C=CC[C@H](NC(=O)c1ccc(F)cn1)[C@H](O)CN[C@H]1CC2(CCC2)Oc2ncc(CC(C)(C)C)cc21` [Example 62, N-((1S)-1-((1R)-2-(((4′S)-6′-(2,2-dimethylpropyl)-3′,4′-dihydrospiro[cyclobutane-1,2′-pyrano[2,3-b]pyridin]-4′-yl)amino)-1-hydroxyethyl)-3-buten-1-yl)-5-fluoro-2-pyridinecarboxamide] gave an IC50 (BACE1) of 561 nM and an IC50 [1] of 4980 nM.
